Laboratory results as given in publication PMC5831858, “Pharmacological characterisation of CR6086, a potent prostaglandin E2 receptor 4 antagonist, as a new potential disease-modifying anti-rheumatic drug” (Arthritis Research & Therapy, 2018).

How the values were obtained:
CGRP = CGRP (Homo sapiens, UniProt O60894+Q16602); test: CGRP receptor binding; details: [^125I]hCGRPα, Human recombinant CHO cells, read-out: CR6086 Activity at 10µM
[1] = target: Norepinephrine transporter (Homo sapiens, UniProt P23975); test: Norepinephrine transporter binding; details: [^3H]nisoxetine, Human recombinant CHO cells, read-out: CR6086 Activity at 10µM
Sequence of Norepinephrine transporter (P23975 whole entry): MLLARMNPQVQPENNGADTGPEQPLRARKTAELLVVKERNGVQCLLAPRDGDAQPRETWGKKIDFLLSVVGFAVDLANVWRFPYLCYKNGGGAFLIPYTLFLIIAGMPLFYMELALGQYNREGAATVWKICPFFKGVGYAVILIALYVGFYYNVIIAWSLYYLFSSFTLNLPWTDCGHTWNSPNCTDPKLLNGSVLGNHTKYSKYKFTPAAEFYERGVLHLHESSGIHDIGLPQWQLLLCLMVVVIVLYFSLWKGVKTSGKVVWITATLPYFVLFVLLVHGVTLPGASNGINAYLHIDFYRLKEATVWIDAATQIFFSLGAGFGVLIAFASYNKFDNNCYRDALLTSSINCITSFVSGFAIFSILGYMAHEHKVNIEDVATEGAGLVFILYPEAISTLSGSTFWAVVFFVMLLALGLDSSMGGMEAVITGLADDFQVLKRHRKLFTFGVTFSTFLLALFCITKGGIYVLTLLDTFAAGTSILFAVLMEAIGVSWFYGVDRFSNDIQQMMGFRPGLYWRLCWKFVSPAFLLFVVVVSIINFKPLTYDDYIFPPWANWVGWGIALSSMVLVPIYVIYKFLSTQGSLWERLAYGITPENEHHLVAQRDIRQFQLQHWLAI

BZD (peripheral) = BZD (peripheral) (Rattus norvegicus, UniProt P16257); test: Benzodiazepine receptor (peripheral) binding; details: [^3H]PK 11195, Rat heart, read-out: CR6086 Activity at 10µM
COX-1 = target: T1, COX-1 (Homo sapiens, UniProt P23219); test: Cyclooxygenase COX-1 enzymatic activity; format: biochemical; details: Sf9 cells, read-out: CR6086 Activity at 10µM
T1 construct: host or cells: Sf9 cells
T1 sequence (P23219 24-599): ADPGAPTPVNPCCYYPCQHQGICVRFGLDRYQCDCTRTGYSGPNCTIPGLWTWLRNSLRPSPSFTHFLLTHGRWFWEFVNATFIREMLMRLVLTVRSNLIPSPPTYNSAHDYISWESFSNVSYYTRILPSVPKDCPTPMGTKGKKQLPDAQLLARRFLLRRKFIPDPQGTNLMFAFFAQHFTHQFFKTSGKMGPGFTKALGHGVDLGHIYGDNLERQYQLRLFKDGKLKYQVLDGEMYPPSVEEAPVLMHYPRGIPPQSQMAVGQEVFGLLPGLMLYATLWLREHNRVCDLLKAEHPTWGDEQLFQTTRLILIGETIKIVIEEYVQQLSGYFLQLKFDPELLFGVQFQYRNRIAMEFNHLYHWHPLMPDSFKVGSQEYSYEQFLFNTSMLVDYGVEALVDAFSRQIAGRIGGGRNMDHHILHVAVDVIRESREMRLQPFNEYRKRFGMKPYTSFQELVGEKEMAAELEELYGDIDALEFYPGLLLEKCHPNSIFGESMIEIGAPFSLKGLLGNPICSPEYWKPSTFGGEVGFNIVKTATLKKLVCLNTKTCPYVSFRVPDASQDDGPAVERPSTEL

BZD (central) = test: Benzodiazepine receptor (central) binding; details: [^3H]flunitrazepam, Rat cerebral cortex
VPAC1 (VIP1) = VPAC1 (VIP1) (Homo sapiens, UniProt P32241); test: VPAC1 receptor binding; details: [^125I]VIP, Human recombinant CHO cells, read-out: CR6086 Activity at 10µM
Sequence of VPAC1 (VIP1) (P32241 31-457): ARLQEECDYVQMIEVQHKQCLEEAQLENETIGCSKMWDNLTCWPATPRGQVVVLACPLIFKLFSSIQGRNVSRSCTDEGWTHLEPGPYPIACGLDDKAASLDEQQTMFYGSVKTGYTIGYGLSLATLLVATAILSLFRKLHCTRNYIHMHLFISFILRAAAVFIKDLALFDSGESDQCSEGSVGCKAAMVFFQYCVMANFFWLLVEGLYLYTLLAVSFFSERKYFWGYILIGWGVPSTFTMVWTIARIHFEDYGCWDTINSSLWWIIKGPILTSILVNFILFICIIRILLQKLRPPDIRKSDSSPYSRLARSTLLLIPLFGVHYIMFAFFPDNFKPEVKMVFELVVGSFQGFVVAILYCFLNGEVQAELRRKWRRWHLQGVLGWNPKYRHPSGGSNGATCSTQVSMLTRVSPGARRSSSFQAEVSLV

5-HT7 = 5-HT7 (Homo sapiens, UniProt P34969); test: Serotonin receptor 5-HT7 binding; details: [^3H]LSD, Human recombinant CHO cells, read-out: CR6086 Activity at 10µM
5-HT5a = 5-HT5a (Homo sapiens, UniProt P47898); test: Serotonin receptor 5-HT5a binding; details: [^3H]LSD, Human recombinant HEK-293 cells, read-out: CR6086 Activity at 10µM
Sequence of 5-HT5a (P47898 whole entry): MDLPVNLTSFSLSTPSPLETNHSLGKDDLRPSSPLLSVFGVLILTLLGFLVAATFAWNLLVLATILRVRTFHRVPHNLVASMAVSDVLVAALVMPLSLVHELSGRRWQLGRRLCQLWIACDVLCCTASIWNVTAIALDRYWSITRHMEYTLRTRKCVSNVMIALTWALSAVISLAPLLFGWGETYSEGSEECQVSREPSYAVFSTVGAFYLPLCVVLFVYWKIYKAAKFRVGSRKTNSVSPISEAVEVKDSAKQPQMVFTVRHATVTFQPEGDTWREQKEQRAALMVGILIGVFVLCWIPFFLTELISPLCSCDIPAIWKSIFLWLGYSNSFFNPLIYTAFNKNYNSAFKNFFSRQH

PAC1 (PACAP) = PAC1 (PACAP) (Homo sapiens, UniProt P41586); test: PAC1 receptor binding; details: [^125I]PACAP1-27, Human recombinant CHO cells, read-out: CR6086 Activity at 10µM
Sequence of PAC1 (PACAP) (P41586 21-468): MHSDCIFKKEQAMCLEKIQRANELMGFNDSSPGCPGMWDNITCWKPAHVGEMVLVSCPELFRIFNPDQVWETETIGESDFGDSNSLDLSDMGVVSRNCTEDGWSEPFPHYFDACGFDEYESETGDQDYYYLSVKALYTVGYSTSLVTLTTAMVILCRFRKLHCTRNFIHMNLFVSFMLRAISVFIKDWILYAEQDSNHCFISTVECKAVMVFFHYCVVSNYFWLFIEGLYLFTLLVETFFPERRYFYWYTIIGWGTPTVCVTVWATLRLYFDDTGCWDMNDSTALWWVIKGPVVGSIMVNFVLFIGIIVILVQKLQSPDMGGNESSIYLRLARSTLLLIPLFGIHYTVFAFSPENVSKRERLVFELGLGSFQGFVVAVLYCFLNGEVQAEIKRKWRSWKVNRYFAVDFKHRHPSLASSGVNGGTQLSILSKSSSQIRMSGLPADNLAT

CB1 = CB1 (Homo sapiens, UniProt P21554); test: Cannabinoid receptor CB1 binding; details: [^3H]CP 55940, Human recombinant CHO cells, read-out: CR6086 Activity at 10µM
Sequence of CB1 (P21554 whole entry): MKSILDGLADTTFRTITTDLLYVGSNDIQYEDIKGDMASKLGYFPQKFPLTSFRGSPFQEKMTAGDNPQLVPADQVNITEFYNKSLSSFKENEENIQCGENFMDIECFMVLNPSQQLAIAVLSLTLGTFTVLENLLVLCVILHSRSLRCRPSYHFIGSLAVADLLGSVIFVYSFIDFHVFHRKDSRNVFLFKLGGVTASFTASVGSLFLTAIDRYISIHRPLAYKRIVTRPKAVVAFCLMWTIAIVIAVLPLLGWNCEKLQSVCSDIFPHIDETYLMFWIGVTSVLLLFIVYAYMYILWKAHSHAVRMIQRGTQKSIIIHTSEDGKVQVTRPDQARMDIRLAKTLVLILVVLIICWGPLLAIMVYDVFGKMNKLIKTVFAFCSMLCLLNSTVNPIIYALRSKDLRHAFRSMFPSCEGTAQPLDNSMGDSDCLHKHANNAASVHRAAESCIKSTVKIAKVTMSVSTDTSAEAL

[2] = tested on: arthritic mice (collagen-induced arthritis model); test: CIA in mice, second study: serum cytokines and signal limb histology; format: in vivo, mouse; details: 10 days
D1 = D1 (Homo sapiens, UniProt P21728); test: Dopamine receptor D1 binding; details: [^3H]SCH 23390, Human recombinant CHO cells, read-out: CR6086 Activity at 10µM
Sequence of D1 (P21728 whole entry): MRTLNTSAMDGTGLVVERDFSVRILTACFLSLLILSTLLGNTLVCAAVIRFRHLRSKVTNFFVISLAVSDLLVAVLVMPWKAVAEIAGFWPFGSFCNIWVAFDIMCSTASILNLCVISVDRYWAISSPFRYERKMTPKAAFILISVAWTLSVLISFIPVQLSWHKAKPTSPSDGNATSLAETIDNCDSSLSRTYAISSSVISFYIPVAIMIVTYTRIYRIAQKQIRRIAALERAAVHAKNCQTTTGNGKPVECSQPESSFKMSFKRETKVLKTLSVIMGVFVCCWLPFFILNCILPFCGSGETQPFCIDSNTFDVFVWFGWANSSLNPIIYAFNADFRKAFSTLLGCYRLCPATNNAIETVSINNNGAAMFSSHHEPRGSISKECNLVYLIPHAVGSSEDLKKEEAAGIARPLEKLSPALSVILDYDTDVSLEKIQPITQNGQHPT

B2 = B2 (Homo sapiens, UniProt P30411); test: B2 receptor binding; details: [^3H]bradykinin, Human recombinant CHO cells, read-out: CR6086 Activity at 10µM
Sequence of B2 (P30411 whole entry): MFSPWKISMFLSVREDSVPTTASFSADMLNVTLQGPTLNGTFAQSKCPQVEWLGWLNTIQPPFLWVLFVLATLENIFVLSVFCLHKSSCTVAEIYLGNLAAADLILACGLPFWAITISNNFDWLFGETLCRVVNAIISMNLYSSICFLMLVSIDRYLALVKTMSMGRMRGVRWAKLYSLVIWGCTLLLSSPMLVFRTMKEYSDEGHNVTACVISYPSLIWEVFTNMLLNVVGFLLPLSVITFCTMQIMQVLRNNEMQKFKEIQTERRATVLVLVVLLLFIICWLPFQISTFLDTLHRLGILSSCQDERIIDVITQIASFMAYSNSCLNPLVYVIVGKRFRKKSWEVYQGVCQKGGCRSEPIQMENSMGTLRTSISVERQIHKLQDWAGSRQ

β1 = β1 (Homo sapiens, UniProt P08588); test: Adrenergic receptor β1 binding; details: [^3H](-)CGP 12177, Human recombinant HEK-293 cells, read-out: CR6086 Activity at 10µM
5-HT1A = 5-HT1A (Homo sapiens, UniProt P08908); test: Serotonin receptor 5-HT1A binding; details: [^3H]8-OH-DPAT, Human recombinant HEK-293 cells, read-out: CR6086 Activity at 10µM
PCP = PCP receptor binding; details: [^3H]TCP, Rat cerebral cortex
δ2 (DOP) = δ2 (DOP) (Homo sapiens, UniProt P41143); test: Opioid receptor δ2 (DOP) binding; details: [^3H]DADLE, Human recombinant CHO cells, read-out: CR6086 Activity at 10µM
D5 = D5 (Homo sapiens, UniProt P21918); test: Dopamine receptor D5 binding; details: [^3H]SCH 23390, Human recombinant GH4 cells, read-out: CR6086 Activity at 10µM
Sequence of D5 (P21918 whole entry): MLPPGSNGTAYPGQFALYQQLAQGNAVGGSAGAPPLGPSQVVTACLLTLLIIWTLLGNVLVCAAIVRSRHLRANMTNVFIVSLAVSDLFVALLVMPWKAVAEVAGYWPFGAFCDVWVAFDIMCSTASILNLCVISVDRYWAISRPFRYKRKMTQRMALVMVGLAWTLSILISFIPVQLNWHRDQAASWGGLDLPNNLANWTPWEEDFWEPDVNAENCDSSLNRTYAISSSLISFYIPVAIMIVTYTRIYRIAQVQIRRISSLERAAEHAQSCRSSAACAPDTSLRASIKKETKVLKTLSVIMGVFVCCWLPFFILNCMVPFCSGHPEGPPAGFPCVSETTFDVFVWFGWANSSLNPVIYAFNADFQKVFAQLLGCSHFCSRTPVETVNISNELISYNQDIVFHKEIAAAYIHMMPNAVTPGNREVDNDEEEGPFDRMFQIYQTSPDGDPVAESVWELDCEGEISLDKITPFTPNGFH

H1 = H1 (Homo sapiens, UniProt P35367); test: Histamine receptor H1 binding; details: [^3H]pyrilamine, Human recombinant HEK-293 cells, read-out: CR6086 Activity at 10µM
[3] = tested on: arthritic mice (collagen-induced arthritis model); test: CIA in mice, first study: clinical score and paw swelling; format: in vivo, mouse; details: 10 days; CR6086 30 and 60 mg/kg, naproxen 60 mg/kg oral once daily; etanercept 10 mg/kg i.p. every other day
Procedure: Male DBA/1 mice were immunised by intradermal injection at the base of the tail with an emulsion of 200 μg of bCII in CFA containing 3 mg/ml Mycobacterium tuberculosis. Non-immunised mice served as the negative control of disease. Animals were monitored by visual inspection for appearance of peripheral oedema. […] Upon onset, animals were recruited and randomised. Recruitment was given a cut-off at day 40. Upon recruitment, arthritis clinical score was assigned, and oedema was measured via caliper.
In a first study, mice were randomised into the following treatment groups: vehicle, 30 mg/kg CR6086, 60 mg/kg CR6086, 60 mg/kg naproxen and 10 mg/kg etanercept. Animals received the test drugs for 10 days. CR6086 and naproxen were administered orally once daily, whereas etanercept was administered intraperitoneally every other day. Animals treated with vehicle, 60 mg/kg CR6086, naproxen and etanercept were additionally analysed for the proportion of populations of Th17 cells, Th1 cells, regulatory T cells, B cells, macrophages, neutrophils and dendritic cells by fluorescence-activated cell sorting (FACS) after collection of blood, draining lymph nodes and joints.
Oedema measurement was performed every day before treatment, and all animals were blindly scored for clinical signs of arthritis as follows: 0 = normal; 1 = slight swelling and/or erythema; 2 = pronounced oedematous swelling; and 3 = ankyloses and severe swelling. A score of 0.5 was given to swollen toe/toes or when inflammation was localised to one part of the foot. Each limb was measured separately, with a final score based on the sum of the scores from all four paws.

sst (non-selective) = test: sst receptor (non-selective) binding; details: [^125I]Tyr^11-somatostatin-14, AtT-20 cells
EP3 = target: T2, EP3 (Homo sapiens, UniProt P43115); test: Eicosanoid receptor EP3 binding; details: [^3H]PGE2, HEK-293 cells, read-out: CR6086 Activity at 10µM
T2 construct: host or cells: HEK-293 cells

[4] = 30 mg/kg oral daily, mean ± SEM
[5] = 60 mg/kg oral daily, mean ± SEM

Sequence of CGRP (Q16602 23-461): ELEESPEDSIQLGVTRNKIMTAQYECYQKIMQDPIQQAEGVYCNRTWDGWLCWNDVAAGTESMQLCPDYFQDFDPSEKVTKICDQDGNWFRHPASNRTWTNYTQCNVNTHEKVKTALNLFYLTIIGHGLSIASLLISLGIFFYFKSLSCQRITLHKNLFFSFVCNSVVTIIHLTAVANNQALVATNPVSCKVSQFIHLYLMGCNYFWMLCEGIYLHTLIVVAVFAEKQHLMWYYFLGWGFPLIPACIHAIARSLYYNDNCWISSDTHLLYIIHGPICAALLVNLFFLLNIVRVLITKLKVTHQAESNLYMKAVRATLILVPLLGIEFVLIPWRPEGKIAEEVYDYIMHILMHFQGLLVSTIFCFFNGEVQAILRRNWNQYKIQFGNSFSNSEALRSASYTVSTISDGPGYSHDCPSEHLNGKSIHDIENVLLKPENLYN
Sequence of CGRP (O60894 27-148): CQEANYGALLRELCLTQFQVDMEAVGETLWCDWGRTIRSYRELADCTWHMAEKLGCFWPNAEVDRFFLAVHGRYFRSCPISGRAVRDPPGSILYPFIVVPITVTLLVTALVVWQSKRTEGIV

## O=C([O-])c1ccc(C2(NC(=O)[C@H]3CC4(CCN3Cc3ccc(C(F)(F)F)cc3)CC4)CC2)cc1.[Na+] [CR6086, Sodium (R)-4-(1-(6-(4-(trifluoromethyl)benzyl)-6-azaspiro[2.5]octane-5-carboxamido)cyclopropyl)benzoate]
CGRP
  inhibition at 10 µM: < 20%
[1]
  inhibition at 10 µM: < 20%
BZD (peripheral)
  inhibition at 10 µM: < 20%
COX-1
  inhibition at 10 µM: < 20%
BZD (central)
  CR6086 Activity at 10µM: IN (IN = < 20% displacement or inhibition (all tables))
VPAC1 (VIP1)
  inhibition at 10 µM: < 20%
5-HT7
  inhibition at 10 µM: < 20%
5-HT5a
  inhibition at 10 µM: < 20%
PAC1 (PACAP)
  inhibition at 10 µM: < 20%
CB1
  inhibition at 10 µM: < 20%
[2]; [4]
  IFNγ serum concentration: 1.79 ± 0.32 pg/mL
  IL-10 serum concentration: 16.17 ± 1.95 pg/mL
  IL-17 serum concentration: 2.36 ± 0.62 pg/mL
  TNFα serum concentration: 34.37 ± 2.21 pg/mL
[2]; [5]
  IL-10 serum concentration: 18.16 ± 2.65 pg/mL
  IL-17 serum concentration: 0.92 ± 0.20 pg/mL
  TNFα serum concentration: 33.67 ± 3.58 pg/mL
[2]; 60 mg/kg oral once daily
  effect on IL-6 mean serum concentrations: returned towards normal levels
[2]; 30 and 60 mg/kg oral once daily
  histological scores of the signal limb: acts as a disease modifier
D1
  inhibition at 10 µM: < 20%
B2
  inhibition at 10 µM: < 20%
β1
  inhibition at 10 µM: < 20%
5-HT1A
  inhibition at 10 µM: < 20%
PCP
  CR6086 Activity at 10µM: IN (IN = < 20% displacement or inhibition (all tables))
δ2 (DOP)
  inhibition at 10 µM: < 20%
D5
  inhibition at 10 µM: < 20%
H1
  inhibition at 10 µM: < 20%
[3]
  effect on disease parameters (visual clinical score, paw swelling) vs vehicle: significantly improved
Sst (non-selective)
  CR6086 Activity at 10µM: IN (IN = < 20% displacement or inhibition (all tables))
EP3
  inhibition at 10 µM: < 20%
